Read-outs that look alike come from different tables or passages of the source.
How the values were obtained:
in vitro [1] = experiment: in vitro; design: species or system CCD841, HEK293; details: human, hb2 cells, read-out: HB-2 Cells Viability (%)
in vitro [2] = experiment: in vitro; design: species or system HB2, HEK293; details: human, ccd841 cells
in vitro [3] = experiment: in vitro; design: species or system HB2, CCD841; details: human, hek293 cells
BSA = target: T1, BSA (Bos taurus, UniProt P02769); design: Intact protein LC/MS covalent labelling, fragments in pools of five, 200 uM each, 4 °C; details: 24 h, 4 °C, pool of five; 200 µM; covalent
T1 construct: gene ALB

NUDT7 = target: T2, NUDT7 (Homo sapiens, UniProt P0C024); design: Intact protein LC/MS covalent labelling, fragments in pools of five, 200 uM each, 4 °C; details: 24 h, 4 °C, pool of five; 200 µM; covalent
T2 construct: residues 14-235, E. coli, pNIC28-Bsa4, N-terminal His6 tag removed by TEV, construct 26672 Da

OTUB2 (OTUB2A) = target: T3, OTUB2 (OTUB2A) (Homo sapiens, UniProt Q96DC9); design: Intact protein LC/MS covalent labelling, fragments in pools of five, 200 uM each, 4 °C; details: 24 h, 4 °C, pool of five; 200 µM; covalent
T3 construct: full length residues 1-234, E. coli BL21(DE3)-R3, His tag removed by TEV, construct 27312 Da
T3 sequence (Q96DC9 1-234): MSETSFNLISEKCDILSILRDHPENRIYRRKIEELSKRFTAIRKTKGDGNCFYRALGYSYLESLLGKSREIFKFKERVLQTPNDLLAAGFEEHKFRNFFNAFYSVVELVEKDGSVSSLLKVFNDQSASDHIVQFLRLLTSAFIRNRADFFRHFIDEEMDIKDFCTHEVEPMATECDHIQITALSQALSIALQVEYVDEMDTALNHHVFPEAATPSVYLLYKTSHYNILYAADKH

PCAF = target: T4, PCAF (Homo sapiens, UniProt Q92831); design: Intact protein LC/MS covalent labelling, fragments in pools of five, 200 uM each, 4 °C; details: 24 h, 4 °C, pool of five; 200 µM; covalent
T4 construct: gene KAT2B
T4 sequence (Q92831 whole entry, the tested form may be a part): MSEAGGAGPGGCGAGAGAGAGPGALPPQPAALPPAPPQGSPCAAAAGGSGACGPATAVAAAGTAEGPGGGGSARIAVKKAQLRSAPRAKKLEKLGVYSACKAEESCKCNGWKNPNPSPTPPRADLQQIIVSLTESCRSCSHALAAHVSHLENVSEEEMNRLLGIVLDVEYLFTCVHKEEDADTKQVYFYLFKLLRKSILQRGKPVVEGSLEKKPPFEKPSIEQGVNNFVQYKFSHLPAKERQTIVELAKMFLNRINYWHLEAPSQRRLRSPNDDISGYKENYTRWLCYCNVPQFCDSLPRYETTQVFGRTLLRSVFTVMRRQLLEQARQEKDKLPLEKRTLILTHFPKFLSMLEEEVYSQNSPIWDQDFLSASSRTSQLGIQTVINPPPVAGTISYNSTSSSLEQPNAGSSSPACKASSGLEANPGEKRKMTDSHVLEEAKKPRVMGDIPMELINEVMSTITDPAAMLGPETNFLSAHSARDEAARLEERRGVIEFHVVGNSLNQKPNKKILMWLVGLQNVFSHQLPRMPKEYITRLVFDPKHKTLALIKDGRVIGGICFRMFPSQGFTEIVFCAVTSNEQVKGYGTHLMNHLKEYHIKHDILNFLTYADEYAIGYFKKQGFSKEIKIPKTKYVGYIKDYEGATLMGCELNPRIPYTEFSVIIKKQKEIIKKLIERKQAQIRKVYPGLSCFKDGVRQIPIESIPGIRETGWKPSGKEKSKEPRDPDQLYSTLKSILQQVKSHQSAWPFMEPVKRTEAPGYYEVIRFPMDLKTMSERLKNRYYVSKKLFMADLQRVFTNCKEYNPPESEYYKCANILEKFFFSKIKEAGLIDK

T1 sequence (P02769 whole entry, the tested form may be a part): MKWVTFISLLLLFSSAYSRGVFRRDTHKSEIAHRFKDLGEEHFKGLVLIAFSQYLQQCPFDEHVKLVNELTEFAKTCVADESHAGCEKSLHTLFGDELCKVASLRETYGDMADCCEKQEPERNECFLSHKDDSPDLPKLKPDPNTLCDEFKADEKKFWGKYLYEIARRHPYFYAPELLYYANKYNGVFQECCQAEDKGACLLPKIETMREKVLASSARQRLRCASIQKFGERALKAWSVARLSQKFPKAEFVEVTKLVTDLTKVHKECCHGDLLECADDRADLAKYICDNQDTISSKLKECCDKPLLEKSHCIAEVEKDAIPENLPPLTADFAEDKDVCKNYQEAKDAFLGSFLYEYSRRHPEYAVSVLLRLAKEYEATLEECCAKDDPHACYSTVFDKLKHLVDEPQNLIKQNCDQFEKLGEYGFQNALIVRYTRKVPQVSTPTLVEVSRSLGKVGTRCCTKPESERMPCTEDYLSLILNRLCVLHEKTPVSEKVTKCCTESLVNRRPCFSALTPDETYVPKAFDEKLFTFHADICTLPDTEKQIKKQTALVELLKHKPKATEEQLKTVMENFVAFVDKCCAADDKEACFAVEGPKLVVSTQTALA
T2 sequence (P0C024 14-235): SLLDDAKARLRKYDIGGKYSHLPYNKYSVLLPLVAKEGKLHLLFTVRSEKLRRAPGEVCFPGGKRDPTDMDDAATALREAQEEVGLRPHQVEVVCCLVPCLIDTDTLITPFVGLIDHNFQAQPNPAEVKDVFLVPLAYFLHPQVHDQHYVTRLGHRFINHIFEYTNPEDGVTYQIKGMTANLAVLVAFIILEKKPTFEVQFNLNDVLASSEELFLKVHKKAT

With `C=CC(=O)N1CCOCC1c1cccn1C` (stereo not shown) [PCM-0102721] the viability at 48 h, 10 µM (in vitro [1]) was 102%, the viability at 48 h, 10 µM (in vitro [2]) was 92.8% and the viability at 48 h, 10 µM (in vitro [3]) was 97.2%. For the same molecule, the BSA (BSA) was 0, the NUDT7 (NUDT7) was 0 and the OTUB2 (OTUB2 (OTUB2A)) was 0. It also gave a PCAF (PCAF) of 0.
`C=CC(=O)NC1(c2nnc[nH]2)CCC1` [PCM-0102722] showed a viability at 48 h, 10 µM (in vitro [1]) of 102%, a viability at 48 h, 10 µM (in vitro [2]) of 96.7% and a viability at 48 h, 10 µM (in vitro [3]) of 105%. The BSA (BSA) was 0, the NUDT7 (NUDT7) was 0 and the OTUB2 (OTUB2 (OTUB2A)) was 0. For the same molecule, the PCAF (PCAF) was 0.
`C=CC(=O)N1CCCC(C(C)NC(=O)NC(C)(C)C)C1` (stereo not shown) [PCM-0102723] showed a viability at 48 h, 10 µM (in vitro [1]) of 105%, a viability at 48 h, 10 µM (in vitro [2]) of 109% and a viability at 48 h, 10 µM (in vitro [3]) of 99.2%. The BSA (BSA) was 0, the NUDT7 (NUDT7) was 0 and the OTUB2 (OTUB2 (OTUB2A)) was 0. It also gave a PCAF (PCAF) of 0.
Molecule `C=CC(=O)NCC1=CCCCC1` [PCM-0102726] has a viability at 48 h, 10 µM (in vitro [1]) of 105%, a viability at 48 h, 10 µM (in vitro [2]) of 99.1% and a viability at 48 h, 10 µM (in vitro [3]) of 89.9%. The BSA (BSA) was 0.1, the NUDT7 (NUDT7) was 0 and the OTUB2 (OTUB2 (OTUB2A)) was 0. It also gave a PCAF (PCAF) of 0.
`C=CC(=O)NCc1nnc(C(C)(C)C)s1` [PCM-0102727] gave a viability at 48 h, 10 µM (in vitro [1]) of 105%, a viability at 48 h, 10 µM (in vitro [2]) of 108% and a viability at 48 h, 10 µM (in vitro [3]) of 100%. For the same molecule, the BSA (BSA) was 0, the NUDT7 (NUDT7) was 0 and the OTUB2 (OTUB2 (OTUB2A)) was 0.18. It also gave a PCAF (PCAF) of 0.
For `C=CC(=O)N(C)CC(=O)N1c2ccccc2NC(=O)CC1C` (stereo not shown) [PCM-0102729], the viability at 48 h, 10 µM (in vitro [1]) was 104%, the viability at 48 h, 10 µM (in vitro [2]) was 107% and the viability at 48 h, 10 µM (in vitro [3]) was 107%. For the same molecule, the BSA (BSA) was 0, the NUDT7 (NUDT7) was 0 and the OTUB2 (OTUB2 (OTUB2A)) was 0. The PCAF (PCAF) was 0.
`O=C(CCl)NCc1ccc(F)cc1C(F)(F)F` [PCM-0102733] gave a viability at 48 h, 10 µM (in vitro [1]) of 86.6%, a viability at 48 h, 10 µM (in vitro [2]) of 79.1% and a viability at 48 h, 10 µM (in vitro [3]) of 68.8%. It also gave a BSA (BSA) of 0, an NUDT7 (NUDT7) of 0.06 and an OTUB2 (OTUB2 (OTUB2A)) of 0.33. It also gave a PCAF (PCAF) of 0.
Work on `COC(=O)C1(NC(=O)CCl)CCCCC1` [PCM-0102734] yielded a viability at 48 h, 10 µM (in vitro [1]) of 98.3%, a viability at 48 h, 10 µM (in vitro [2]) of 95.1% and a viability at 48 h, 10 µM (in vitro [3]) of 112%. For the same molecule, the BSA (BSA) was 0, the NUDT7 (NUDT7) was 0 and the OTUB2 (OTUB2 (OTUB2A)) was 0. It also gave a PCAF (PCAF) of 0.
With `C#Cc1cccc(NC(=O)CCl)c1` [PCM-0102735] the viability at 48 h, 10 µM (in vitro [1]) was 90.9%, the viability at 48 h, 10 µM (in vitro [2]) was 85.7% and the viability at 48 h, 10 µM (in vitro [3]) was 87%. The BSA (BSA) was 0, the NUDT7 (NUDT7) was 0 and the OTUB2 (OTUB2 (OTUB2A)) was 0.09. For the same molecule, the PCAF (PCAF) was 0.
`O=C(CCl)Nc1ccc2c(c1)OC(F)(F)O2` [PCM-0102738] showed a viability at 48 h, 10 µM (in vitro [1]) of 30%, a viability at 48 h, 10 µM (in vitro [2]) of 72.2% and a viability at 48 h, 10 µM (in vitro [3]) of 14.2%. It also gave a BSA (BSA) of 0, an NUDT7 (NUDT7) of 0 and an OTUB2 (OTUB2 (OTUB2A)) of 0.41. It also gave a PCAF (PCAF) of 0.
`Cl.O=C(CCl)N1CCN(Cc2ccsc2)CC1` [PCM-0102739] gave a viability at 48 h, 10 µM (in vitro [1]) of 55.2%, a viability at 48 h, 10 µM (in vitro [2]) of 85.9% and a viability at 48 h, 10 µM (in vitro [3]) of 42.7%. For the same molecule, the BSA (BSA) was 0, the NUDT7 (NUDT7) was 0.07 and the OTUB2 (OTUB2 (OTUB2A)) was 0. For the same molecule, the PCAF (PCAF) was 0.
In the case of `C=CC(=O)Nc1ccc([N+](=O)[O-])cc1` [PCM-0102740], the viability at 48 h, 10 µM (in vitro [1]) is reported as 77.4%, the viability at 48 h, 10 µM (in vitro [2]) is reported as 71.6% and the viability at 48 h, 10 µM (in vitro [3]) is reported as 87.6%. The BSA (BSA) was 0, the NUDT7 (NUDT7) was 0.05 and the OTUB2 (OTUB2 (OTUB2A)) was 0. The PCAF (PCAF) was 0.
In the case of `O=C(CCl)Nc1cc(C(F)(F)F)ccc1N1CCOCC1` [PCM-0102741], the viability at 48 h, 10 µM (in vitro [1]) is reported as 102%, the viability at 48 h, 10 µM (in vitro [2]) is reported as 111% and the viability at 48 h, 10 µM (in vitro [3]) is reported as 118%. For the same molecule, the BSA (BSA) was 0, the NUDT7 (NUDT7) was 0 and the OTUB2 (OTUB2 (OTUB2A)) was 0.1. It also gave a PCAF (PCAF) of 0.
For `C=CC(=O)Nc1ccccc1[N+](=O)[O-]` [PCM-0102742], the viability at 48 h, 10 µM (in vitro [1]) was 41.2%, the viability at 48 h, 10 µM (in vitro [2]) was 66.4% and the viability at 48 h, 10 µM (in vitro [3]) was 65.8%. For the same molecule, the BSA (BSA) was 0, the NUDT7 (NUDT7) was 0.41 and the OTUB2 (OTUB2 (OTUB2A)) was 0. The PCAF (PCAF) was 0.
Work on `O=C(CCl)N(C1=CCCCC1)C1CC1` [PCM-0102745] yielded a viability at 48 h, 10 µM (in vitro [1]) of 96.2%, a viability at 48 h, 10 µM (in vitro [2]) of 88.3% and a viability at 48 h, 10 µM (in vitro [3]) of 98.7%. The BSA (BSA) was 0, the NUDT7 (NUDT7) was 0 and the OTUB2 (OTUB2 (OTUB2A)) was 0. It also gave a PCAF (PCAF) of 0.
In the case of `CC(C)N1CCC(NC(=O)CCl)CC1.Cl` [PCM-0102748], the viability at 48 h, 10 µM (in vitro [1]) is reported as 90.9%, the viability at 48 h, 10 µM (in vitro [2]) is reported as 90.3% and the viability at 48 h, 10 µM (in vitro [3]) is reported as 97%. It also gave a BSA (BSA) of 0, an NUDT7 (NUDT7) of 0 and an OTUB2 (OTUB2 (OTUB2A)) of 0. The PCAF (PCAF) was 0.

Source: paper PMC6556873, “Rapid Covalent-Probe Discovery by Electrophile-Fragment Screening” (Journal of the American Chemical Society, 2019)
